# Measurements: patent US5037812A, “Tumor cell growth-inhibiting pharmaceutical compositions containing phosphino-hydrocarbon-gold, silver or copper complexes” (priority 1986, dated 1991)
# Values joined by “and” are separate entries in the source; they are usually repeats but may differ in a detail not shown here. Equal values may be shown once.
# Key:
# P388 leukemia = test: ip P388 leukemia mouse model; assay type: in vivo, mice (B6D2F1); settings: for MTD (maximally tolerated dose): B6D2F female mice, ip qDX5; for ILS max (maximum increase in lifespan): mice bearing ip P388 leukemia, ip days 1-5 at MTD, slash-separated figures are separate experiments
# Experimental: This tumor system is widely accepted as an antitumor agent screening tool because it is sensitive to virtually all of the clinically active antineoplastic agents; quantitative and reproducible; amenable for large-scale screening; and predictive for activity in other animal tumor models.
# 10^6 P388 leukemia cells are inoculated ip in B6D2F1 mice. Twenty-four hours later, if the tumor inoculum proves to be free of bacterial contamination (as determined by 24 hours incubation in thioglycollate broth), animals are randomized into groups of 6 and housed in shoebox cages. […] An equal volume of saline or water is added; if the drug comes out of solution an equal volume of Cremophor (polyethoxylated castor oil) is added and then saline or water, as to a concentration such that the desired dose is delivered in 0.5 ml. The final concentration of DMA, ethanol or Cremophor is 10 percent. Dilutions for lower doses are made with saline or water so that there is a decreasing proportion of organic solvents in the vehicle with decreasing dosage. […] Formulations are prepared immediately prior to injection. The Formula (I) and Formula (II) compounds are administered ip on Days 1 through 5 (i.e., treatment is initiated 24 hrs after tumor inoculation). Each experiment includes three groups of 6 animals as untreated controls and animals treated with a positive control, cisplatin, at two dose levels. Animals are weighed as a group on Days 1, 5 and 9 and average weight change (Δwt.) is used as a reflection of toxicity. Each experiment also includes an inoculum titration--groups of 8 mice inoculated ip with 10^5 to 10^0 P388 leukemia cells. The titration is used as a quality control check for the performance of the tumor model. Animals are monitored daily for mortality and experiments are terminated after 45 days. The endpoint is median survival time (MST) and increase in lifespan (ILS) which is the percentage of increase in MST relative to untreated controls.
# [1] = solubility in 9:1 water:ethanol (HPLC of filtrate); settings: stirred 15 hours, 0.45 μm PTFE filter, HPLC
# Experimental: Such solubility was determined as follows: The compound in question was dissolved or suspended in absolute ethanol (250 mg solid per 1.0 ml ethanol). To the resulting solution or suspension, water (9.0 times the volume of ethanol) was added. This suspension was stirred vigorously for 15 hours, then filtered through a 0.45 μm poly(tetrafluoroethylene) (PTFE) filter. […] The HPLC system was as follows:
# Column PLRP-S, 5μm, obtained from Polymer Laboratories, Inc.
# Mobile Phase 9:1 acetonitrile:0.1% tetra-n-butylammonium hydrogen sulfate (50° C., 1.0 ml-min-^-1)
# Detection Ultraviolet (250 nm)
# [2] = test system: M5076 reticulum cell sarcoma; test: ip M5076 reticulum cell sarcoma in mice; assay type: in vivo, mice (B6D2F female); settings: for MTD (maximally tolerated dose): B6D2F female mice, ip qDX10; for ILS max (maximum increase in lifespan): mice bearing ip M5076, ip qDX10 at MTD, slash-separated figures are separate experiments
# Experimental: Another tumor model used for evaluation of tumor growth inhibiting drugs is intraperitoneally implanted M5076 reticulum cell sarcoma in mice. […] Drugs are administered ip. Daily treatment is begun 24 hours after implantation and is continued for ten days. The treatment regimen for M5076 is more prolonged than for P388 because of the slower growth rate and longer control survival time of the M5076 tumor. Compounds of Formula (I) and Formula (II) were evaluated in this assay. An evaluation of several compounds of Formula (I) in the M5076 reticulum cell sarcoma assay at their maximally tolerated dose (MTD) is set forth in Table III. An ILS of ≥25% indicates activity in this tumor model.
# ^(b) maximally tolerated dose for B6D2F female mice on an ip qDX10
# ^(c) maximum increase in lifespan produced in mice bearing ip M5076
# B16 melanoma = test: in vivo ip B16 melanoma assay; set-up: species or system mice (B6D2F1); settings: ip qDX10; for MTD (maximally tolerated dose): B6D2F1 mice; for ILS (maximum increase in lifespan): mice bearing ip B16 melanoma, slash-separated figures are separate experiments
# Experimental: Daily treatment is begun 24 hours after tumor implantation and is continued daily for ten (10) days. The route of drug administration is ip. The mice are monitored daily for survival for sixty (60) days. Antitumor activity is assessed by prolongation of median survival time. An ILS of ≥25% indicates activity in this tumor model.
# ^(b) maximally tolerated dose for B6D2F1 mice on an ip qDX10
# ^(c) maximum increase in lifespan produced in mice bearing ip B16
Compound,MTD (maximally tolerated dose) (P388 leukemia) [mg/kg],ILS max (maximum increase in lifespan) (P388 leukemia),Solubility in 9:1 Water:Ethanol [1] [µg/mL],MTD (maximally tolerated dose) [2] [mg/kg],ILS max (maximum increase in lifespan) [2] [%],MTD (maximally tolerated dose) (B16 melanoma) [mg/kg],ILS (maximum increase in lifespan) (B16 melanoma)
"O=[N+]([O-])[O-].[Au+].c1ccc(P(CCP(c2ccccc2)c2ccccc2)c2ccccc2)cc1.c1ccc(P(CCP(c2ccccc2)c2ccccc2)c2ccccc2)cc1 [compound 5, Bis[1,2-bis(diphenylphosphino)ethane]Gold(I) Nitrate]",3,90 ± 17%,30,,,,
"Fc1cccc(P(CCP(c2cccc(F)c2)c2cccc(F)c2)c2cccc(F)c2)c1.Fc1cccc(P(CCP(c2cccc(F)c2)c2cccc(F)c2)c2cccc(F)c2)c1.[Au+].[Cl-] [compound 7, Bis[1,2-bis[bis(. Phosphino]ethane]Gold(I) Chloride]",,45% and 55%,,,,,
CCP(CC)CCP(c1ccccc1)c1ccccc1.CCP(CC)CCP(c1ccccc1)c1ccccc1.[Au+].[Cl-] [compound 8],3,54 ± 16%,,2,46,,
CCP(CC)CCP(c1ccccc1)c1ccccc1.CCP(CC)CCP(c1ccccc1)c1ccccc1.[Cl-].[Cu+] [compound 9],1.5,48% and 45%,,,,,
"CCP(CC)CCP(CC)CC.CCP(CC)CCP(CC)CC.F[P-](F)(F)(F)(F)F.[Au+] [compound 10, Bis[1,2-bis(diethylphosphino)ethane]Gold(I) Hexafluorophosphate]",4,40% and 30%,,,,,
"[Cl-].[Cu+].c1ccc(P(CCCP(c2ccccc2)c2ccccc2)c2ccccc2)cc1.c1ccc(P(CCCP(c2ccccc2)c2ccccc2)c2ccccc2)cc1 [compound 12, Bis[1,3-bis(diphenylphosphino)propane]Copper(I) Chloride]",2,92 ± 15%,,,,1,32% and 47%
"C1=C[PH](c2ccccc2)(c2ccccc2)[Cu+]2([PH]1(c1ccccc1)c1ccccc1)[PH](c1ccccc1)(c1ccccc1)C=C[PH]2(c1ccccc1)c1ccccc1.[Cl-] (stereo not drawn) [compound 13, Bis[cis-1,2-bis(diphenylphosphino)ethylene]Copper(I) Chloride]",3,70 ± 23%,,2,40,0.75,42%
"CS(=O)(=O)[O-].[Au+].c1ccc(P(CCP(c2ccccc2)c2ccccc2)c2ccccc2)cc1.c1ccc(P(CCP(c2ccccc2)c2ccccc2)c2ccccc2)cc1 [compound 14, Bis[1,2-bis(diphenylphosphino)ethane]gold(I) methanesulfonate]",2,81 ± 17%,30,,,,
"CC(O)C(=O)[O-].[Au+].c1ccc(P(CCP(c2ccccc2)c2ccccc2)c2ccccc2)cc1.c1ccc(P(CCP(c2ccccc2)c2ccccc2)c2ccccc2)cc1 [compound 15, Bis[1,2-bis(diphenylphosphino)ethane]gold(I) 2-hydroxypropanoate]",2,71 ± 12%,5200,,,1.5,30%
"O=C([O-])C1OC(O)C(O)C(O)C1O.[Au+].c1ccc(P(CCP(c2ccccc2)c2ccccc2)c2ccccc2)cc1.c1ccc(P(CCP(c2ccccc2)c2ccccc2)c2ccccc2)cc1 [compound 16, Bis[1,2-bis(diphenylphosphino)ethane]gold(I) glucuronate]",2,64 ± 17%,300,,,1.5,40%
"O=S(=O)([O-])[O-].c1ccc([PH]2(c3ccccc3)CC[PH](c3ccccc3)(c3ccccc3)[Au+]23[PH](c2ccccc2)(c2ccccc2)CC[PH]3(c2ccccc2)c2ccccc2)cc1.c1ccc([PH]2(c3ccccc3)CC[PH](c3ccccc3)(c3ccccc3)[Au+]23[PH](c2ccccc2)(c2ccccc2)CC[PH]3(c2ccccc2)c2ccccc2)cc1 (stereo not drawn) [compound 17, Bis{bis[1,2-bis(diphenylphosphino)ethane]gold(I)} sulfate]",2,74% and 50%,30,,,,
"N#C[O-].[Au+].c1ccc(P(CCP(c2ccccc2)c2ccccc2)c2ccccc2)cc1.c1ccc(P(CCP(c2ccccc2)c2ccccc2)c2ccccc2)cc1 [compound 18, Bis[1,2-bis(diphenylphosphino)ethane]gold(I) cyanate]",2,84% and 50%,60,,,,
"O=S(=O)([O-])C(F)(F)F.[Au+].c1ccc(P(CCP(c2ccccc2)c2ccccc2)c2ccccc2)cc1.c1ccc(P(CCP(c2ccccc2)c2ccccc2)c2ccccc2)cc1 [compound 20, Bis[1,2-bis(diphenylphosphino)ethane]gold(I) trifluoromethanesulfonate]",2,63% and 75%,20,,,,
"CC(=O)C(=O)[O-].[Au+].c1ccc(P(CCP(c2ccccc2)c2ccccc2)c2ccccc2)cc1.c1ccc(P(CCP(c2ccccc2)c2ccccc2)c2ccccc2)cc1 [compound 21, Bis[1,2-bis(diphenylphosphino)ethane]gold(I) 2-oxopropanoate]",2,60% and 50%,200,,,,
"O=C([O-])CCCO.[Au+].c1ccc(P(CCP(c2ccccc2)c2ccccc2)c2ccccc2)cc1.c1ccc(P(CCP(c2ccccc2)c2ccccc2)c2ccccc2)cc1 [compound 22, Bis[1,2-(diphenylphosphino)ethane]gold(I) 4-hydroxybutanoate]",2,65% and 70%,2900,,,,
"O=C([O-])CO.[Au+].c1ccc(P(CCP(c2ccccc2)c2ccccc2)c2ccccc2)cc1.c1ccc(P(CCP(c2ccccc2)c2ccccc2)c2ccccc2)cc1 [compound 23, Bis[1,2-bis(diphenylphosphino)ethane]gold(I) hydroxyacetate]",2,55% and 75%,8600,,,,
"CCC(O)C(=O)[O-].[Au+].c1ccc(P(CCP(c2ccccc2)c2ccccc2)c2ccccc2)cc1.c1ccc(P(CCP(c2ccccc2)c2ccccc2)c2ccccc2)cc1 [compound 24, Bis[1,2-bis(diphenylphosphino)ethane]gold(I) DL-2-hydroxybutanoate]",2,55% and 80%,900,,,,
"Bis[1,2-bis(diethylphosphino)ethane]Silver(I) Nitrate [compound 11]",0.5,50% and 40%,,,,,
"Bis[1,2-bis[bis(4-fluorophenyl)phosphino]ethane Gold(I) Chloride [compound 6]",3,55% and 50%,,,,,
"Tris{bis-[1,2-bis(diphenylphosphino)ethane]gold(I)} citrate [compound 19]",4,95% and 90%,30,,,,
